Data as given in patent publication US7381433B1, “Compositions containing an extract of a primula denticulata and use thereof” (Johnson & Johnson Consumer Companies, Inc., priority 2007, dated 2008).

Test system: sebocytes
Assay: In vitro sebocyte lipogenesis assay (Nile red lipid accumulation)
Assay type: cell-based, human

Compound `CCCCCC1=CC(=O)C=C(OC)C1=O` [Primin, 2-methoxy-6-pentyl-1,4-benzoquinone] has an Induction of lipogenesis (Primin concentration 0.3 μg/mL) of 17.9%, an Induction of lipogenesis (Primin concentration 1.0 μg/mL) of 21.3% and an Induction of lipogenesis (Primin concentration 3.0 μg/mL) of 41.5%. For the same compound, the “Effect on lipogenesis in sebocytes (in words)” value (summary of Tables 1 and 2) was “has lipogenic activity”.
